Laboratory results taken from US20030215817A1, “Modulation of gene expression in formation of fatty atherosclerotic lesions” (priority 2003, published 2003).
Where a name gives a salt, the structure may show the parent alone.

What was measured:
Format in all cases: in vivo, rabbit
[1] = test system: REC1_3 (MspI ACGG 162) mRNA; experiment: TOGA analysis, REC1_3
Method: (§1) To perform the studies, New Zealand male rabbits weighing 2.0-2.5 kg (Charles River, Calco, Italy) were used. The rabbits were divided into three groups and maintained in identical experimental conditions: (1) control group (n=15); rabbits fed a cholesterol-rich diet; (2) lercanidipine-treated group (n=15); rabbits fed a cholesterol-rich diet and also treated with lercanidipine (3 mg/kg/week); and (3) (R)-lercanidipine-treated group (n=5); rabbits fed a cholesterol-rich diet and also treated with the (R)-enantiomer of lercanidipine (3 mg/kg/week). After a 2 week period of subcutaneous, once a week, pretreatment with 3 mg/kg/week of lercanidipine or (R)-lercanidipine, the rabbits received a daily cholesterol supplement for up to 8 weeks or 2 weeks, respectively. In the following examples, use of the term “lercanidipine” refers to the racemic mixture of lercanidipine hydrochloride, whereas “(R)-lercanidipine” refers to the (R)-enantiomer of lercanidipine hydrochloride.
(§2) The mRNA from the above-described groups was isolated from aorta at different time points, resulting in the following mRNA samples: (1) Day 0 Control=no administered cholesterol, no lercanidipine; (2) Day 0+lercanidipine=no administered cholesterol, treatment with lercanipidine (2 weeks; 3 mg/kg/week); (3) Day 14 Control=cholesterol diet for two weeks, no lercanidipine; (4) Day 14+lercanidipine=cholesterol diet for two weeks, treatment with lercanidipine (four weeks; 3 mg/kg/week); (5) Week 8 Control=cholesterol diet for 8 weeks, no lercanidipine; and (6) Week 8+lercanidipine=cholesterol diet for 8 weeks, treatment with lercanidipine (10 weeks; 3 mg/kg/week). In addition, Day 14+(R)-lercanidipine mRNA samples were prepared from rabbits given a cholesterol diet for two weeks and treated with 3 mg/kg/week (R)-lercanidipine for four weeks.
(§3) Aorta mRNAs were prepared in the following manner. First, the aortas from each experimental group were retrieved and shredded using a polytron homogenizer. The samples were further homogenized using a teflon pestle, after which the cellular debris, nuclei, and blood cells were pelleted by centrifugation. The supernatants were extracted twice with phenol-chloroform-isoamyl alcohol and once with chloroform-isoamyl alcohol. RNA was then precipitated from the aqueous phase with ethanol. The poly A+ mRNA was prepared using standard methods of polyA selection known in the art (Schriber et al., J. Mol. Biol., 142:93-116 (1980)).
(§4) The isolated mRNA was analyzed using a method of simultaneous sequence-specific identification of mRNAs known as TOGA, described in U.S. Pat. No. 5,459,037 and U.S. Pat. No. 5,807,680, hereby incorporated herein by reference. In a preferred embodiment, the TOGA method further comprised an additional PCR step performed using a mixture of four 5′ PCR primers and cDNA templates prepared from a population of antisense cRNAs. A final PCR step that used a mixture of 256 5′ PCR primers produced PCR products that were cDNA fragments that corresponded to the 3′-region of the starting mRNA population. The produced PCR products were then identified by: (a) the initial 5′ sequence comprising the sequence remainder of the recognition site of the restriction endonuclease used to cut and isolate the 3′ region plus the sequence of the preferably four parsing bases immediately 3′ to the remainder of the recognition site, preferably the sequence of the entire fragment; and (b) the length of the fragment. […]

[2] = test system: REC1_8 (MspI CCCG 243) mRNA; experiment: TOGA analysis, REC1_8
Method: as §1, §2, §3, §4

[3] = test system: REC1_6 (MspI ATCC 176) mRNA, ferritin light chain subunit; experiment: TOGA analysis, REC1_6
Method: as §1, §2, §3, §4

[4] = test system: REC1_13 (MspI GCCC 216) mRNA; experiment: TOGA analysis, REC1_13
Method: as §1, §2, §3, §4

[5] = test system: REC1_18 (MspI TGGT 241) mRNA; experiment: TOGA analysis, REC1_18
Method: as §1, §2, §3, §4

[6] = test system: REC1_5 (AGTG 184) mRNA; experiment: TOGA analysis, REC1_5
Method: as §1, §2, §3, §4

[7] = test system: REC1_16 (TCGG 195) mRNA; experiment: TOGA analysis, REC1_16
Method: as §1, §2, §3, §4

[8] = test system: REC1_17 (TCGT 199) mRNA; experiment: TOGA analysis, REC1_17
Method: as §1, §2, §3, §4

[9] = test system: REC1_20 (TTAC 210) mRNA, phosphofructo-1-kinase C isozyme; experiment: TOGA analysis, REC1_20
Method: as §1, §2, §3, §4

[10] = test system: REC1_12 (GCCC 232) mRNA, alpha smooth muscle actin; experiment: TOGA analysis, REC1_12
Method: as §1, §2, §3, §4

[11] = test system: REC1_36 (digital address TTAG 155) mRNA; experiment: TOGA analysis, REC1_36
Method: as §1, §2, §3
The isolated mRNA was analyzed using a method of simultaneous sequence-specific identification of mRNAs known as TOGA, described in U.S. Pat. No. 5,459,037 and U.S. Pat. No. 5,807,680, hereby incorporated herein by reference. In a preferred embodiment, the TOGA method further comprised an additional PCR step performed using a mixture of four 5′ PCR primers and cDNA templates prepared from a population of antisense cRNAs. A final PCR step that used a mixture of 256 5′ PCR primers produced PCR products that were cDNA fragments that corresponded to the 3′-region of the starting mRNA population. The produced PCR products were then identified by: (a) the initial 5′ sequence comprising the sequence remainder of the recognition site of the restriction endonuclease used to cut and isolate the 3′ region plus the sequence of the preferably four parsing bases immediately 3′ to the remainder of the recognition site, preferably the sequence of the entire fragment; and (b) the length of the fragment. These two parameters, sequence and fragment length, were used to compare the obtained PCR products to a database of known polynucleotide sequences. Since the length of the obtained PCR products includes known vector sequences at the 5′ and 3′ ends of the insert, the sequence of the insert provided in the sequence listing is shorter than the fragment length that forms part of the digital address.
The method yields Digital Sequence Tags (DSTs), that is, polynucleotides that are expressed sequence tags of the 3′ end of mRNAs. […]

[12] = TOGA, hypercholesterolemic plus lercanidipine racemate, eight weeks, H2 (normocholesterolemic)=1.0

In the case of COC(=O)C1=C(C)NC(C)=C(C(=O)OC(C)(C)CN(C)CCC(c2ccccc2)c2ccccc2)C1c1cccc([N+](=O)[O-])c1 (racemic) [lercanidipine, lercanidipine hydrochloride], the “level of gene expression (TOGA), 8 Week hypercholesterol + Lercanidipine” value ([1]; REC1_3, ACGG 162, rabbit aorta, 8 weeks cholesterol + lercanidipine) is reported as 65, the “level of gene expression (TOGA), 14 Day hypercholesterol + Lercanidipine” value ([1]; REC1_3, ACGG 162, rabbit aorta, 14 days cholesterol + lercanidipine) is reported as 68 and the “level of gene expression (TOGA), Normal + Lercanidipine” value (from here on “level … (TOGA), Normal + Lercanidipine”) ([1]; REC1_3, ACGG 162, rabbit aorta, no cholesterol, lercanidipine) is reported as 54. For the same compound, the “Relative Abundance Rec1_3, TOGA, F” value [1, 12] was 0.8, the “level of gene expression, 8 Week hypercholesterol + Lercanidipine” value ([2]; REC1_8 CCCG 243, rabbit aorta, 8 weeks cholesterol) was 1136 and the “level of gene expression, 14 Day hypercholesterol + Lercanidipine” value ([2]; REC1_8 CCCG 243, rabbit aorta, 14 days cholesterol) was 373. The “level of gene expression, Normal + Lercanidipine” value ([2]; REC1_8 CCCG 243, rabbit aorta, no cholesterol) was 163, the “Relative Abundance Rec1_8, TOGA, F” value [2, 12] was 13.1 and the “level of gene expression (TOGA), 8 Week hypercholesterol + Lercanidipine” value ([3]; REC1_6, ATCC 176, rabbit aorta, 8 weeks cholesterol + lercanidipine) was 1302. The “level of gene expression (TOGA), 14 Day hypercholesterol + Lercanidipine” value ([3]; REC1_6, ATCC 176, rabbit aorta, 14 days cholesterol + lercanidipine) was 399, the “level … (TOGA), Normal + Lercanidipine” value ([3]; REC1_6, ATCC 176, rabbit aorta, no cholesterol, lercanidipine) was 120 and the “Relative Abundance Rec1_6, TOGA, F” value [3, 12] was 8.8. For the same compound, the “level of gene expression, 8 Week hypercholesterol + Lercanidipine” value ([4]; REC1_13 GCCC 216, rabbit aorta, 8 weeks cholesterol) was 4186, the “level of gene expression, 14 Day hypercholesterol + Lercanidipine” value ([4]; REC1_13 GCCC 216, rabbit aorta, 14 days cholesterol) was 542 and the “level of gene expression, Normal + Lercanidipine” value ([4]; REC1_13 GCCC 216, rabbit aorta, no cholesterol) was 575. For the same compound, the “Relative Abundance Rec1_13, TOGA, F” value [4, 12] was 5.9, the “level of gene expression, 8 Week hypercholesterol + Lercanidipine” value ([5]; REC1_18 TGGT 241, rabbit aorta, cholesterol 8 weeks) was 935 and the “level of gene expression, 14 Day hypercholesterol + Lercanidipine” value ([5]; REC1_18 TGGT 241, rabbit aorta, cholesterol 14 days) was 112. For the same compound, the “level of gene expression, Normal + Lercanidipine” value ([5]; REC1_18 TGGT 241, rabbit aorta, no cholesterol) was 316, the “Relative Abundance Rec1_18, TOGA, F” value [5, 12] was 5.0 and the “level of gene expression (TOGA), 8 Week hypercholesterol + Lercanidipine” value ([6]; REC1_5, AGTG 184, rabbit aorta, 8 weeks cholesterol + lercanidipine) was 188. For the same compound, the “level of gene expression (TOGA), 14 Day hypercholesterol + Lercanidipine” value ([6]; REC1_5, AGTG 184, rabbit aorta, 14 days cholesterol + lercanidipine) was 699, the “level … (TOGA), Normal + Lercanidipine” value ([6]; REC1_5, AGTG 184, rabbit aorta, no cholesterol, lercanidipine) was 1034 and the “Relative Abundance Rec1_5, TOGA, F” value [6, 12] was 0.2. The “level of gene expression (TOGA), 8 Week hypercholesterol + Lercanidipine” value ([7]; REC1_16 TCGG 195, rabbit aorta, 8 weeks cholesterol, lercanidipine) was 530, the “level of gene expression (TOGA), 14 Day hypercholesterol + Lercanidipine” value ([7]; REC1_16 TCGG 195, rabbit aorta, 14 days cholesterol, lercanidipine) was 1052 and the “level … (TOGA), Normal + Lercanidipine” value ([7]; REC1_16 TCGG 195, rabbit aorta, no cholesterol, lercanidipine) was 2028. The “Relative Abundance Rec1_16, TOGA, F” value [7, 12] was 0.2, the “level of gene expression (TOGA), 8 Week hypercholesterol + Lercanidipine” value ([8]; REC1_17 TCGT 199, rabbit aorta, 8 weeks cholesterol, lercanidipine) was 262 and the “level of gene expression (TOGA), 14 Day hypercholesterol + Lercanidipine” value ([8]; REC1_17 TCGT 199, rabbit aorta, 14 days cholesterol, lercanidipine) was 713. For the same compound, the “level … (TOGA), Normal + Lercanidipine” value ([8]; REC1_17 TCGT 199, rabbit aorta, no cholesterol, lercanidipine) was 1434, the “Relative Abundance Rec1_17, TOGA, F” value [8, 12] was 0.15 and the “level of gene expression, 8 Week hypercholesterol + Lercanidipine” value ([9]; REC1_20 TTAC 210, rabbit aorta, cholesterol 8 weeks) was 260. The “level of gene expression, 14 Day hypercholesterol + Lercanidipine” value ([9]; REC1_20 TTAC 210, rabbit aorta, cholesterol 14 days) was 348, the “level of gene expression, Normal + Lercanidipine” value ([9]; REC1_20 TTAC 210, rabbit aorta, no cholesterol) was 607 and the “Relative Abundance Rec1_20, TOGA, F” value [9, 12] was 0.3. For the same compound, the “level of gene expression, 8 Week hypercholesterol + Lercanidipine” value ([10]; REC1_12 GCCC 232, rabbit aorta, 8 weeks cholesterol) was 622, the “level of gene expression, 14 Day hypercholesterol + Lercanidipine” value ([10]; REC1_12 GCCC 232, rabbit aorta, 14 days cholesterol) was 5657 and the “level of gene expression, Normal + Lercanidipine” value ([10]; REC1_12 GCCC 232, rabbit aorta, no cholesterol) was 4929. For the same compound, the “Relative Abundance Rec1_12, TOGA, F” value [10, 12] was 0.1, the “level of gene expression, 8 Week hypercholesterol + Lercanidipine” value ([11]; REC1_36 TTAG 155, rabbit aorta, cholesterol 8 weeks) was 400 and the “level of gene expression, 14 Day hypercholesterol + Lercanidipine” value ([11]; REC1_36 TTAG 155, rabbit aorta, cholesterol 14 days) was 683. The “level of gene expression, Normal + Lercanidipine” value ([11]; REC1_36 TTAG 155, rabbit aorta, no cholesterol) was 186, the “Relative Abundance Rec1_36, TOGA, F” value [11, 12] was 0.5 and the “level of gene expression of REC1_36 (TOGA)” value ([11]; aorta at day 14 of cholesterol administration, 3 mg/kg/week for 4 weeks) was 683. For the same compound, the “level of gene expression of REC1_36 (TOGA)” value ([11]; aorta at week 8 of cholesterol administration, 3 mg/kg/week for 10 weeks) was 400.
